Columns and labels:
SHV-12 = SHV-12 (Klebsiella pneumoniae, UniProt P0AD64, E235K/G234S/L31Q); assay: Ki, nitrocefin cleavage by purified enzyme, SHV-12; type: biochemical; conditions: nitrocefin reporter substrate; read-out: Ki (SHV-12, NCF)
Experimental: (§1) Purified enzymes were mixed with various concentrations of inhibitors in reaction buffer and incubated for 10 min at room temperature. Nitrocefin was added and substrate cleavage profiles were recorded at 490 nm every 10 sec for 10 min.

ec308 (SHV-5) = assay: Tigemonam potentiation (MPC@4), ec308; type: cell-based
KP1086 (OXA-48) = assay: Biapenem potentiation (MPC@1), KP1086; conditions: BLI with biapenem at 1 μg/mL
EC1010 (CMY-6) [1] = assay: organism not typed; type: cell-based
EC1010 (CMY-6) [2] = assay: Tigemonam potentiation (MPC@4), EC1010; type: cell-based; conditions: BLI with tigemonam at 4 μg/mL
ec302 (TEM-10) [3] = assay: Tigemonam potentiation (MPC@4), ec302; type: cell-based
CTX-M-14 = CTX-M-14 (Escherichia coli, UniProt Q9L5C7); assay: Ki, nitrocefin cleavage by purified enzyme, CTX-M-14; type: biochemical; conditions: nitrocefin reporter substrate; read-out: Ki (CTX-M-14, NCF)
Experimental: as §1

ECL1002 [4] = assay: Aztreonam potentiation (MPC@4), ECL1002; type: cell-based; conditions: BLI with aztreonam at 4 μg/mL
KP1005 (CTX-M-14) = assay: Tigemonam potentiation (MPC@4), KP1005; type: cell-based; conditions: BLI with tigemonam at 4 μg/mL
ec302 (TEM-10) [5] = assay: Aztreonam potentiation (MPC@4), ec302; type: cell-based; conditions: BLI with aztreonam at 4 μg/mL
P99 = P99 (Enterobacter cloacae, UniProt P05364); assay: Ki, nitrocefin cleavage by purified enzyme, P99; type: biochemical; conditions: nitrocefin reporter substrate; read-out: Ki (P99, NCF)
Experimental: as §1

ECL1002 [6] = assay: Tigemonam potentiation (MPC@4), ECL1002; type: cell-based; conditions: BLI with tigemonam at 4 μg/mL
OXA-48 = OXA-48 (Klebsiella pneumoniae, UniProt Q6XEC0); assay: Ki, nitrocefin cleavage by purified enzyme, OXA-48; type: biochemical; conditions: nitrocefin reporter substrate; read-out: Ki (OXA-48, NCF)
Experimental: as §1

KP1010 (SHV-12) = assay: Tigemonam potentiation (MPC@4), KP1010; type: cell-based
KP1009 (CTX-M-15) = assay: Tigemonam potentiation (MPC@4), KP1009; type: cell-based; conditions: BLI with tigemonam at 4 μg/mL
[7] = Monomer content of pH adjusted aqueous solutions (LC-UV); type: physicochemical; conditions: pH adjusted to 7.6 to 8, LC-UV; for % Monomer in 1 mg/mL salt solution: 1 mg/mL aqueous salt solution
Experimental: Boronic acid containing compounds are known to undergo oligomerization. The presence of oligomers can greatly complicate drug development, as they represent new chemical species whose content must be controlled and qualified by testing in toxoicology studies. The monomer content of compounds was evaluated by adjusting aqueous solutions to physiological pH at various concentrations. The monomer content of pH adjusted solutions was measured using LC-UV. Test compounds were weighed out into a 1.5 mL Eppendorf tube. A solution of water was prepared in 1.00 mg/mL, 10.0 mg/mL or 100 mg/mL concentrations of the compound based on active fraction. A volume 20 uL was subtracted to allow room for addition of acid or base to adjust pH. The solution pH was measured. The pH was then adjusted through addition of acid or base as necessary until the reading was in the 7.6 to 8 range. A final pH measurement was made after ensuring all the compound was in solution. The solution was injected onto LC-UV in 0.1 uL to 5 uL volume within less than half an hour after the time the sample was prepared. Elution was done using 0.1% TFA in water for mobile phase A and 0.085% TFA in methanol for mobile phase B on an Excel ACE 5 Super C18 2.1×100 mm column at 0.6 ml/min flow rate with 9 min gradient, 3.9 minute hold at 90% B and 18 minute run time. The absorption was measured at 220, 254 and 300 nm with a 4 nm bandwidth.

KPC-2 = KPC-2 (Klebsiella pneumoniae, UniProt Q9F663); assay: Ki, nitrocefin cleavage by purified enzyme, KPC-2; type: biochemical; conditions: nitrocefin reporter substrate; read-out: Ki (KPC-2, NCF)
Experimental: as §1

KP1004 (KPC-2) = assay: Biapenem potentiation (MPC@1), KP1004; conditions: BLI with biapenem at 1 μg/mL
Pa AmpC = Pa AmpC (Pseudomonas aeruginosa, UniProt P24735); assay: Ki, nitrocefin cleavage by purified enzyme, Pa AmpC; type: biochemical; conditions: nitrocefin reporter substrate; read-out: Ki (Pa AmpC, NCF)
Experimental: Ki values of inhibition of purified class A, C and D enzymes were determined spectrophotometrically using nitrocefin as reporter substrate. Purified enzymes were mixed with various concentrations of inhibitors in reaction buffer and incubated for 10 min at room temperature. Nitrocefin was added and substrate cleavage profiles were recorded at 490 nm every 10 sec for 10 min. These experiments confirmed that the described compounds are inhibitors with a broad-spectrum of activity towards various β-lactamases.

[8] = Serum stability of prodrugs, human serum; type: in vitro ADME; conditions: human serum; prodrug; theoretical initial conc. 20 ug/mL
Experimental: (§2) Prodrug strategy is one of the ways to achieve or increase oral bioavailability for therapeutic drugs. […] After a prodrug molecule is absorbed into systemic circulation, it should be hydrolyzed in the blood in order to release the active form. Hydrolysis of several prodrugs by rat and human serum were evaluated.
(§3) For all stability experiments the test compounds were treated with rat or human serum in Eppendorf tubes. Typically, 992 μl of serum was prewarmed at 37 degrees for 2 minutes and then 8 μl of a compound (at 5 mg/ml, 125×) was added to it to get a final concentration of […] and immediately mixed. Alternatively, serum stability might be tested at 1 mg/ml. […] After vortexing for 30 seconds, the tube was centrifuged in a microcentrifuge for 10 minutes at 15K rpm. Next, 100 μl of the supernatant was combined with 600 μl of water and injected on LC-MS using 0.1% formic acid in water for mobile phase A and 0.1% formic acid in methanol for mobile phase B on an ACE 5 C18 2.1×100 mm column with a 10 μL injection. The flow rate and gradient were adjusted as needed to give the desired resolution and run time. The pH of the mobile phase was adjusted if needed to improve the chromatography.
(§4) The time course of both the disappearance of a prodrug and the appearance of the active form of that prodrug is presented in Table 6 and Table 7. The active metabolites for all of the listed prodrugs are corresponding parent drugs

[9] = Serum stability of prodrugs, rat serum; type: in vitro ADME; conditions: theoretical initial conc. 20 ug/mL; for Measured Initial Conc. in Serum: 37 degrees; for Conc. at t = 1 hr / Conc. at t = 3 hr: prodrug
Experimental: as §2, §3, §4

[10] = Serum stability of prodrugs, human serum; type: in vitro ADME; conditions: theoretical initial conc. 20 ug/mL; for Measured Initial Conc. in Serum: 37 degrees; for Conc. at t = 1 hr: prodrug

Chain of SHV-12 (P0AD64 22-286 L31Q/G234S/E235K): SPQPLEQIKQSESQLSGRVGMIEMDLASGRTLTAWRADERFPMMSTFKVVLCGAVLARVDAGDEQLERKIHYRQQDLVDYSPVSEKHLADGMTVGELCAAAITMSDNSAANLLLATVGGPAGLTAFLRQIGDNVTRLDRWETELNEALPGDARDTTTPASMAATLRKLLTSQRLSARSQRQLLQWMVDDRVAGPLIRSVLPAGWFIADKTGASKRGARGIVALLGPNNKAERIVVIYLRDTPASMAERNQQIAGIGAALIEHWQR
Chain of KPC-2 (Q9F663 25-293, looked up, species assumed): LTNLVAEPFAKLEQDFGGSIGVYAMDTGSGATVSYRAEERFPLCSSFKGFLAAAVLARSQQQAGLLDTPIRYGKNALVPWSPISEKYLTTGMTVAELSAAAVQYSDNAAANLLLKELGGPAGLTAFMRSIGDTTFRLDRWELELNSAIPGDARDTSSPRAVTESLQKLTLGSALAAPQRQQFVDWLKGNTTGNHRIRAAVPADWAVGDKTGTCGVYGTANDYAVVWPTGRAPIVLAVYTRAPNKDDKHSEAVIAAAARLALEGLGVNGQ
Chain of CTX-M-14 (Q9L5C7 29-291): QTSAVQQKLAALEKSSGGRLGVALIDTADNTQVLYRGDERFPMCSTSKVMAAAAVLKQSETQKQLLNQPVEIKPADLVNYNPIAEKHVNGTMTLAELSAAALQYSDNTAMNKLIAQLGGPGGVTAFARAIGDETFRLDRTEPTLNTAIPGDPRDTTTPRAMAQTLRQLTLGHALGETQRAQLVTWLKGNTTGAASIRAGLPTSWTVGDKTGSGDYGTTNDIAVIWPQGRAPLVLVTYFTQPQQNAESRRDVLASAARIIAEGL
Chain of OXA-48 (Q6XEC0 23-265, looked up, species assumed): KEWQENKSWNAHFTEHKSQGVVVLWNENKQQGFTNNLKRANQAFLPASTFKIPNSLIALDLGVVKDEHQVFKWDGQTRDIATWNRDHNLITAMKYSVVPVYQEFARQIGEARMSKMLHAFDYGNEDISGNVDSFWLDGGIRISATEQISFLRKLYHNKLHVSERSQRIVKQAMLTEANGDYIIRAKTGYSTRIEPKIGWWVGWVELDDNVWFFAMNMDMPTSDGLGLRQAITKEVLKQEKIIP
Chain of P99 (P05364 21-381): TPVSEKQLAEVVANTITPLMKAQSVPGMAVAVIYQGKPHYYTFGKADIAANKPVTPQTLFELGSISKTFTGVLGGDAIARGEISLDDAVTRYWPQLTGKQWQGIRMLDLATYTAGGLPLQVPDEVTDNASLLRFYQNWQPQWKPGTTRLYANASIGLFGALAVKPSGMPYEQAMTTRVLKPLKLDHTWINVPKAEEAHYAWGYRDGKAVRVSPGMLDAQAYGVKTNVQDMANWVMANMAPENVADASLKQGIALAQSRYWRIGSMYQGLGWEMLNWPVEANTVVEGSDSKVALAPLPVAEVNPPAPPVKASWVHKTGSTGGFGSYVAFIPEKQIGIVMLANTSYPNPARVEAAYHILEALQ
Chain of Pa AmpC (P24735 27-397): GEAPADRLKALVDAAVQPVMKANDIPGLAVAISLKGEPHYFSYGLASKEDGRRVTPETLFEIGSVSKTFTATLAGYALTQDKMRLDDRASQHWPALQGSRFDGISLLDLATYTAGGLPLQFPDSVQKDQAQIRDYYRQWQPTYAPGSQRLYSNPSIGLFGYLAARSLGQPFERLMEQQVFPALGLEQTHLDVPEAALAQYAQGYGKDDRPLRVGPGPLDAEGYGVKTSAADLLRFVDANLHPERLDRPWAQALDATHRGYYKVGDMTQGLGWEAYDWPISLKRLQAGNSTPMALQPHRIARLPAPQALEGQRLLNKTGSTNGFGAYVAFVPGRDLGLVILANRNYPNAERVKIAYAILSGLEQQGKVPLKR

Conc. at t = 3 hr [8] [ng/mL] | Measured Initial Conc. in Serum [9] [µg/mL] | Conc. at t = 1 hr [9] [ng/mL] | Conc. at t = 3 hr [9] [ng/mL] | Measured Initial Conc. in Serum [10] [µg/mL] | Conc. at t = 1 hr [10] [ng/mL] | Compound | Ki (SHV-12) [nM] | TIG MPC4 SHV-5 ec308 (ec308 (SHV-5)) | BPM MPC1 OXA-48 KP1086 (KP1086 (OXA-48)) | TIG MPC4 CMY-6 EC1010 (EC1010 (CMY-6) [2]) | TIG MPC4 TEM-10 ec302 (ec302 (TEM-10) [3]) | Ki (CTX-M-14) [nM] | TIG MPC4 CTX-M-14 KP1005 (KP1005 (CTX-M-14)) | AZT MPC4 TEM-10 ec302 (ec302 (TEM-10) [5]) | Ki (P99) [nM] | TIG MPC4 ECL1002 (ECL1002 [6]) | Ki (OXA-48) [nM] | TIG MPC4 SHV-12 KP1010 (KP1010 (SHV-12)) | TIG MPC4 CTX-M-15 KP1009 (KP1009 (CTX-M-15)) | % Monomer in 1 mg/mL salt solution [7] [%] | further results
– | – | – | – | – | – | CSCC(=O)N[C@H]1Cc2ccc(SC)c(C(=O)O)c2OB1O [Compound 10, (R)-2-hydroxy-7-(methylthio)-3-(2-(methylthio)acetamido)-3,4-dihydro-2H-benzo[e][1,2]oxaborinine-8-carboxylic acid] | < 1 | X (key: X: MIC of less than 1 μg/mL; Y: MIC of 1 μg/mL to 10 μg/mL; Z: MIC of greater than 10 μg/mL) | Z (MIC of greater than 10 μg/mL) | X (MIC of less than 1 μg/mL) | Y (key: X: MIC of less than 1 ng/mL; Y: MIC of 1 μg/mL to 10 μg/mL; Z: MIC of greater than 10 μg/mL) | < 1 | Y (MIC of 1 μg/mL to 10 μg/mL) | Y (MIC of 1 μg/mL to 10 μg/mL) | > 10 | X (MIC of less than 1 μg/mL) | 1 to 10 | X (key: X: MIC of less than 1 μg/mL; Y: MIC of 1 μg/mL to 10 μg/mL; Z: MIC of greater than 10 μg/mL) | X (MIC of less than 1 μg/mL) | 87.5 | AZT MPC4 CMY-6 EC1010 (EC1010 (CMY-6) [1]): Y (key: X: MIC of less than 1 ng/mL; Y: MIC of 1 μg/mL to 10 μg/mL; Z: MIC of greater than 10 μg/mL); AZT MPC4 ECL1002 (ECL1002 [4]): Y (MIC of 1 μg/mL to 10 μg/mL); Ki (KPC-2): > 10 nM; BPM MPC1 KP1004 KPC-2 (KP1004 (KPC-2)): X (MIC of less than 1 μg/mL)
– | – | – | – | – | – | COc1ccc2c(c1C(=O)O)OB(O)[C@@H](NC(=O)CSC)C2 [Compound 12, (R)-2-hydroxy-7-methoxy-3-(2-(methylthio)acetamido)-3,4-dihydro-2H-benzo[e][1,2]oxaborinine-8-carboxylic acid] | < 1 | X (key: X: MIC of less than 1 μg/mL; Y: MIC of 1 μg/mL to 10 μg/mL; Z: MIC of greater than 10 μg/mL) | Y (MIC of 1 μg/mL to 10 μg/mL) | X (MIC of less than 1 μg/mL) | Y (key: X: MIC of less than 1 ng/mL; Y: MIC of 1 μg/mL to 10 μg/mL; Z: MIC of greater than 10 μg/mL) | < 1 | X (MIC of less than 1 μg/mL) | X (MIC of less than 1 ng/mL) | > 10 | X (MIC of less than 1 μg/mL) | < 1 | X (key: X: MIC of less than 1 μg/mL; Y: MIC of 1 μg/mL to 10 μg/mL; Z: MIC of greater than 10 μg/mL) | X (MIC of less than 1 μg/mL) | 98.2 | Ki (Pa AmpC): > 10 nM; % Monomer in 10 mg/mL salt solution ([7]; 10 mg/mL aqueous salt solution): 95.5%; % Monomer in 100 mg/mL salt solution ([7]; 100 mg/mL aqueous salt solution): 96.5%; Ki (KPC-2): > 10 nM; BPM MPC1 KP1004 KPC-2 (KP1004 (KPC-2)): X (MIC of less than 1 μg/mL)
19000 | 25.9 | 2710 | 740 | 24.8 | 23600 | COc1ccc2c(c1C(=O)OCOC(=O)OC(C)C)OB(O)[C@@H](NC(=O)CSC)C2 [Compound 40, isopropoxycarbonyloxymethyl(3R)-2-hydroxy-7-methoxy-3-[(2-methylsulfanylacetyl)amino]-3,4-dihydro-1,2-benzoxaborinine-8-carboxylate] | – | – | – | – | – | – | – | – | – | – | – | – | – | – | –
580 | 18.6 | 8850 | 420 | 18.4 | 4830 | CSCC(=O)N[C@H]1Cc2cc(F)c(F)c(C(=O)OCOC(=O)C(C)C)c2OB1O [Compound 45, 2-methylpropanoyloxymethyl(3R)-6,7-difluoro-2-hydroxy-3-[(2-methylsulfanylacetyl)amino]-3,4-dihydro-1,2-benzoxaborinine-8-carboxylate] | – | – | – | – | – | – | – | – | – | – | – | – | – | – | –
3160 | 18.0 | 11700 | 4580 | 18.9 | 8940 | CSCC(=O)N[C@H]1Cc2ccc(F)c(C(=O)OCOC(=O)c3ccccc3)c2OB1O [Compound 43, benzoyloxymethyl(3R)-7-fluoro-2-hydroxy-3-[(2-methylsulfanylacetyl)amino]-3,4-dihydro-1,2-benzoxaborinine-8-carboxylate] | – | – | – | – | – | – | – | – | – | – | – | – | – | – | –
1170 | 17.4 | 0 | 0 | 20.3 | 6110 | CCOC(=O)OCOC(=O)c1c(F)ccc2c1OB(O)[C@@H](NC(=O)CSC)C2 [Compound 19, (R)-(ethoxycarbonyloxy)methyl 7-fluoro-2-hydroxy-3-(2-(methylthio)acetamido)-3,4-dihydro-2H-benzo[e][1,2]oxaborinine-8-carboxylate] | – | – | – | – | – | – | – | – | – | – | – | – | – | – | –
